Results on 1 compound are retold here after patent US9243281B2, “Neuroprotective chemicals and methods for identifying and using same” (Board of Regents of The University of Texas System, priority 2013, dated 2016).

For test [1], the system named is hippocampal neurogenesis (Dentate Gyrus). The test is described as follows: in vivo neurogenesis assay (BrdU+ cells in dentate gyrus). The note with it: living mice; vehicle (DMSO) 7.3. On the set-up: species or system mice. A digest of the protocol: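 Pools of ten compounds infused into the left ventricle of two adult mice per pool via cannula and mini-pump over one week, aimed at mid-nanomolar levels. Daily BrdU co-injected; brain sections stained for BrdU to count new dentate gyrus cells.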

Test [2] has as its system U2OS cells. The test is described as follows: doxorubicin toxicity (dox:tox) protection assay, Cell Titer Glo cell survival. The note with it: cultured U2OS cells. In kind it is cell-based. The text has this: FIGS. 2A-2D. […] (FIG. 2A) Chemical structure of P7C3-S326. […] (FIG. 2C) Formulas used for calculating doxorubicin toxicity (dox:tox) protection activity. Protection activity is expressed by (Sinf−S0)/AC50 in the twelve-point dose response curve (DRC) corresponding to each compound, wherein both efficacy and potency of compounds were considered. Sinf represents the expected maximal protection. S0 is the baseline. […] In the photo-crosslinking assays, the p70 band intensity was quantified by Image J, and compared the sample of P7C3-S326 alone with that of P7C3-S326 plus competitor. Pearson correlation coefficient (r) and two tailed P value were determined by GraphPad Prism 6 and Spearman Rank Correlation (v1.0.1) software.
FIG. 10. Twelve-point dose response curves (DRC) of all tested compounds in doxorubicin toxicity protection assay. […] Cell viability was determined by Cell Titer Glo assay kit.
(§1) Cell survival assay was performed in 96-well plates using CellTiter-Glo Luminescent Cell Viability Assay kit (Promega) that measures cellular ATP content. The CellTiter-Glo reagent was diluted by adding 2 volumes of PBS containing 1% Triton X-100. 50 μl of diluted reagent was directly added to 100 μl of cell culture medium per well. Plates were incubated at room temperature for 10 minutes. Luminescence was recorded by Tecan […]luor Plus reader (Tecan). Cell survival was presented as the percentage of viable cells compared with untreated control, and mean±SD was calculated from duplicates. The dox:tox assay of P7C3 analogs was carried out in the HTS Core (University of Texas Southwestern Medical Center) using the EnVison multimode plate reader (Perkin Elmer).
For orientation: ATP-based viability assays read luminescence as a measure of living cells.

Test [3] deals with U2OS cells. The test can be described thus: cell survival assay with seven other toxins. The note with it: 5 μM P7C3-A20 2 h prior to toxins for 72 h. In kind it is cell-based. As for the experimental part: FIG. 8. P7C3A20 protects U2OS cells from doxorubicin-mediated toxicity. U2OS cells were treated with 5 μM P7C3-A20 for 2 h prior to incubation with the indicated concentrations of eight toxins for 72 h.
Progress on studies aimed towards resolving the mode of action of P7C3 has been hampered by the fact that we have been limited to studies of drug action in living animals. Our standard assay of neurogenesis requires, under optimal conditions, a one month turn-around from the synthesis of a new derivative to a score for its neuroprotective activity. In efforts to break this logjam, we tested whether P7C3 might have cell-protective activity to any of eight generic toxins.
as §1, with “Plates were incubated at room temperature for 10 minutes.” left out

`COc1cccc(NCC(F)Cn2c3ccc(Br)cc3c3cc(Br)ccc32)c1` (stereo not drawn) [S10]: the “Neurogenesis # BrdU+ Cells (X10E06)/mm3 Dentate Gyrus” value in test [1] was 19.0 (X10E06)/mm3. Also, the “protection from doxorubicin-mediated toxicity (dox:tox assay)” value in the test with U2OS cells [2] was “protect cultured U2OS cells from doxorubicin-mediated toxicity”. The “protection from seven other toxins” value in the test with U2OS cells [3] was “no evidence of drug-mediated protection”.
